molecular target: native CB1 receptors (Rattus norvegicus, UniProt P20272); assay: CB1 receptor rat binding assay ([3H]SR141716A, rat brain membranes); conditions: rat brain membranes, [3H]SR141716A
Sequence (P20272 whole entry): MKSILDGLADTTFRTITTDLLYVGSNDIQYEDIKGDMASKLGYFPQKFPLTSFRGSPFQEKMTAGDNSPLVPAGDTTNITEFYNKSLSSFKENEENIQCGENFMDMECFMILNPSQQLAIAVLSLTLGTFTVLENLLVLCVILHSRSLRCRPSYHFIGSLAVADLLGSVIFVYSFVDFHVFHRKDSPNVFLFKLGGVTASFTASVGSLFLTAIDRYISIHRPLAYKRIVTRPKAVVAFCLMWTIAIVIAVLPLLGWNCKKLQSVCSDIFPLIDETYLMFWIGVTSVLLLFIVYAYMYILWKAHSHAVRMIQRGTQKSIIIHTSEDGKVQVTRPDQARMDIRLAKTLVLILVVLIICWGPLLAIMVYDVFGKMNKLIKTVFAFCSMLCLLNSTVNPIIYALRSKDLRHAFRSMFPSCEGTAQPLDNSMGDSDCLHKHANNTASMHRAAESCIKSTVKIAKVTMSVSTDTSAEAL

Binding rat Inh % [%] | Compound
123 | O=C(NCCc1ccncc1)c1ccc2c(c1)N=C(c1ccc(Cl)c(Cl)c1)c1ccccc1S2 [drawing 1497]
76 | O=C(NCc1cccnc1)c1ccc2c(c1)N=C(c1ccc(Cl)cc1)c1ccccc1S2 [drawing 1260]
64 | CCCNC(=O)c1ccc2c(c1)N=C(c1sccc1C)c1ccccc1S2 [drawing 1387]
108 | C[C@@H]1CCC[C@H](C)N1NC(=O)c1ccc2c(c1)N=C(c1ccc(F)cc1)c1ccccc1S2 [drawing 1356]
89 | O=C(NCCCC(F)(F)F)c1ccc2c(c1)N=C(c1ccc(Cl)cc1)c1ccccc1S2 [drawing 1226]
90 | CC(C)NC(=O)c1ccc2c(c1)N=C(c1ccc(Cl)cc1)c1ccccc1S2 [drawing 1372]
109 | Cc1ccsc1C1=Nc2cc(C(=O)NCCCC(F)(F)F)ccc2Sc2ccccc21 [drawing 1225]
80 | CCCNC(=O)c1ccc2c(c1)N=C(c1ccc(OC)cc1)c1ccccc1S2 [drawing 1403]
84 | Cc1cnc(-c2ccc3c(c2)N=C(c2ccc(Cl)cc2)c2ccccc2S3)[nH]1 [drawing 1371]
78 | CCCCNC(=O)c1ccc2c(c1)N=C(c1ccc(Cl)cc1)c1cc(Cl)ccc1S2 [drawing 1464]
95 | CC(C)CNC(=O)c1ccc2c(c1)N=C(c1ccc(Cl)s1)c1ccc(F)cc1S2 [drawing 1359]
73 | O=C(NCc1cccnc1)c1ccc2c(c1)N=C(c1ccccc1F)c1ccccc1S2 [drawing 1318]
103 | O=C(NCCc1cccnc1)c1ccc2c(c1)N=C(c1ccc(Cl)c(Cl)c1)c1ccccc1S2 [drawing 1407]
112 | O=C(NC1CCC(F)(F)CC1)c1ccc2c(c1)N=C(c1cccc(F)c1)c1ccccc1S2 [drawing 1249]
83 | O=C(NCCCC(F)(F)F)c1ccc2c(c1)N=C(c1cccc(F)c1)c1ccccc1S2 [drawing 1248]
89 | O=C(NN1CCCCC1)c1ccc2c(c1)N=C(c1ccc(Br)cc1)c1ccccc1S2 [drawing 1423]
94 | O=C(NN1CCCCC1)c1ccc2c(c1)N=C(c1ccc(F)cn1)c1ccccc1S2 [drawing 1494]
94 | O=C(NCc1cccs1)c1ccc2c(c1)N=C(c1ccc(Cl)cc1)c1ccccc1S2 [drawing 1279]
87 | CC(C)CNC(=O)c1ccc2c(c1)N=C(c1ccc(Cl)cn1)c1ccc(F)cc1S2 [drawing 1229]
102 | Cc1ccc(CNC(=O)c2ccc3c(c2)N=C(c2sccc2C)c2ccccc2S3)o1 [drawing 1400]
94 | C[C@@H]1CCC[C@H](C)N1NC(=O)c1ccc2c(c1)N=C(c1ccc(Cl)cc1)c1ccccc1S2 [drawing 1396]
85 | O=C(NCCc1ccccn1)c1ccc2c(c1)N=C(c1ccc(F)cc1)c1ccccc1S2 [drawing 1411]
83 | O=C(NC1CCCCC1)c1ccc2c(c1)N=C(c1ccccc1F)c1ccccc1S2 [drawing 1539]
96 | O=C(NC1CCCCC1)c1ccc2c(c1)N=C(c1ccc(Cl)cc1)c1ccccc1S2 [drawing 1518]
98 | CCCNC(=O)c1ccc2c(c1)N=C(c1ccc(Cl)cc1F)c1ccccc1S2 [drawing 1276]
68 | O=C(NCc1ccncc1)c1ccc2c(c1)N=C(c1ccc(F)cc1)c1ccccc1S2 [drawing 1443]
89 | Cc1csc(CNC(=O)c2ccc3c(c2)N=C(c2cccc(F)c2)c2ccccc2S3)c1 [drawing 1234]
90 | Cc1cccc(C2=Nc3cc(C(=O)NC4CCC(F)(F)CC4)ccc3Sc3ccccc32)n1 [drawing 1425]

Compound | Binding rat Inh % [%]
Cc1ccc(CNC(=O)c2ccc3c(c2)N=C(c2cccc(F)c2)c2ccccc2S3)o1 [drawing 1481] | 88
O=C(NCc1ccco1)c1ccc2c(c1)N=C(c1ccccc1F)c1ccccc1S2 [drawing 1435] | 83
O=C(NN1CCCCC1)c1ccc2c(c1)N=C(c1ccc(Cl)s1)c1ccccc1S2 [drawing 1385] | 88
CC(C)CNC(=O)c1ccc2c(c1)N=C(c1cccc(Cl)c1)c1ccccc1S2 [drawing 1361] | 99
CCCCNC(=O)c1ccc2c(c1)N=C(c1sccc1C)c1ccccc1S2 [drawing 1244] | 103
CC(C)CCNC(=O)c1ccc2c(c1)N=C(c1ccc(F)cc1)c1ccccc1S2 [drawing 1330] | 91

same assay, conditions: rat brain membranes, [3H]SR141716A; read-out: Binding rat pKi (converted)

Ki [nM] | Compound
6.31 | CCN(CCNC(=O)c1ccc2c(c1)N=C(N1CCCCC1)c1ccccc1S2)c1ccccc1 [drawing 1439]
10 | O=C(NCCc1ccncc1)c1ccc2c(c1)N=C(c1ccc(Cl)c(Cl)c1)c1ccccc1S2 [drawing 1497]
2 | O=C(NCCc1ccc(Cl)cc1)c1ccc2c(c1)N=C(C1CCCCC1)c1ccccc1S2 [drawing 1280]
79.4 | CCCC1=Nc2cc(C(=O)NCCc3ccc(OC)cc3OC)ccc2Sc2ccccc21 [drawing 1536]
2.51 | O=C(NCCc1ccccc1)c1ccc2c(c1)N=C(c1ccc(Cl)cc1)c1ccccc1S2 [drawing 1295]
15.8 | O=C(NCc1cccnc1)c1ccc2c(c1)N=C(c1ccc(Cl)cc1)c1ccccc1S2 [drawing 1260]
31.6 | CCCNC(=O)c1ccc2c(c1)N=C(c1sccc1C)c1ccccc1S2 [drawing 1387]
2.51 | CC(CNC(=O)c1ccc2c(c1)N=C(c1cccc(Cl)c1)c1ccccc1S2)c1ccccc1 (stereo not drawn) [drawing 1304]
31.6 | C[C@@H]1CCC[C@H](C)N1NC(=O)c1ccc2c(c1)N=C(c1ccc(F)cc1)c1ccccc1S2 [drawing 1356]
0.631 | O=C(NCCCC(F)(F)F)c1ccc2c(c1)N=C(c1ccc(Cl)cc1)c1ccccc1S2 [drawing 1226]
5.01 | O=C(NCc1cccc(Cl)c1)c1ccc2c(c1)N=C(c1cccc(Cl)c1)c1cc(F)ccc1S2 [drawing 1375]
31.6 | CC(C)NC(=O)c1ccc2c(c1)N=C(c1ccc(Cl)cc1)c1ccccc1S2 [drawing 1372]
10 | CCN(CCNC(=O)c1ccc2c(c1)N=C(c1ccc(Cl)cc1)c1ccccc1S2)c1ccccc1 [drawing 1489]
0.631 | Cc1ccsc1C1=Nc2cc(C(=O)NCCCC(F)(F)F)ccc2Sc2ccccc21 [drawing 1225]
39.8 | CCCNC(=O)c1ccc2c(c1)N=C(c1ccc(OC)cc1)c1ccccc1S2 [drawing 1403]
31.6 | Cc1cnc(-c2ccc3c(c2)N=C(c2ccc(Cl)cc2)c2ccccc2S3)[nH]1 [drawing 1371]
7.94 | CCCCNC(=O)c1ccc2c(c1)N=C(c1ccc(Cl)cc1)c1cc(Cl)ccc1S2 [drawing 1464]
10 | O=C(NCCc1cccc(Cl)c1)c1ccc2c(c1)N=C(C1CCCCC1)c1ccccc1S2 [drawing 1499]
3.98 | CC(C)CNC(=O)c1ccc2c(c1)N=C(c1ccc(Cl)s1)c1ccc(F)cc1S2 [drawing 1359]
25.1 | O=C(NCc1cccnc1)c1ccc2c(c1)N=C(c1ccccc1F)c1ccccc1S2 [drawing 1318]
12.6 | O=C(NCc1ccc(F)cc1)c1ccc2c(c1)N=C(N1CCCCC1)c1ccccc1S2 [drawing 1212]

Ki [nM] | Compound
63.1 | O=C(NCc1ccccc1Br)c1ccc2c(c1)N=C(c1ccccc1)c1ccccc1S2 [drawing 1483]
10 | O=C(NCc1ccccc1Cl)c1ccc2c(c1)N=C(C1CCCCC1)c1ccccc1S2 [drawing 1491]
6.31 | O=C(NCCc1cccnc1)c1ccc2c(c1)N=C(c1ccc(Cl)c(Cl)c1)c1ccccc1S2 [drawing 1407]
10 | O=C(NCc1cccc(Cl)c1)c1ccc2c(c1)N=C(N1CCC(F)CC1)c1ccccc1S2 [drawing 1523]
12.6 | O=C(NCCc1ccc(Cl)cc1)c1ccc2c(c1)N=C(N1CCC(F)CC1)c1ccccc1S2 [drawing 1195]
1 | O=C(NC1CCC(F)(F)CC1)c1ccc2c(c1)N=C(c1cccc(F)c1)c1ccccc1S2 [drawing 1249]
1 | O=C(NCCCC(F)(F)F)c1ccc2c(c1)N=C(c1cccc(F)c1)c1ccccc1S2 [drawing 1248]
6.31 | O=C(NN1CCCCC1)c1ccc2c(c1)N=C(c1ccc(Br)cc1)c1ccccc1S2 [drawing 1423]
63.1 | O=C(NN1CCCCC1)c1ccc2c(c1)N=C(c1ccc(F)cn1)c1ccccc1S2 [drawing 1494]
25.1 | CCCCNC(=O)c1ccc2c(c1)N=C(N1CCCCC1)c1ccccc1S2 [drawing 1325]
2 | O=C(NCc1cccs1)c1ccc2c(c1)N=C(c1ccc(Cl)cc1)c1ccccc1S2 [drawing 1279]
15.8 | CC(C)CNC(=O)c1ccc2c(c1)N=C(c1ccc(Cl)cn1)c1ccc(F)cc1S2 [drawing 1229]
6.31 | Cc1ccc(CNC(=O)c2ccc3c(c2)N=C(c2sccc2C)c2ccccc2S3)o1 [drawing 1400]
39.8 | C[C@@H]1CCC[C@H](C)N1NC(=O)c1ccc2c(c1)N=C(c1ccc(Cl)cc1)c1ccccc1S2 [drawing 1396]
39.8 | O=C(NCCc1ccccn1)c1ccc2c(c1)N=C(c1ccc(F)cc1)c1ccccc1S2 [drawing 1411]
12.6 | O=C(NC1CCCCC1)c1ccc2c(c1)N=C(c1ccccc1F)c1ccccc1S2 [drawing 1539]
10 | O=C(NC1CCCCC1)c1ccc2c(c1)N=C(c1ccc(Cl)cc1)c1ccccc1S2 [drawing 1518]
20 | CCCNC(=O)c1ccc2c(c1)N=C(c1ccc(Cl)cc1F)c1ccccc1S2 [drawing 1276]
50.1 | O=C(NCc1ccncc1)c1ccc2c(c1)N=C(c1ccc(F)cc1)c1ccccc1S2 [drawing 1443]
0.794 | Cc1csc(CNC(=O)c2ccc3c(c2)N=C(c2cccc(F)c2)c2ccccc2S3)c1 [drawing 1234]
6.31 | Cc1cccc(C2=Nc3cc(C(=O)NC4CCC(F)(F)CC4)ccc3Sc3ccccc32)n1 [drawing 1425]

Compound | Ki [nM]
Cc1ccc(CNC(=O)c2ccc3c(c2)N=C(c2cccc(F)c2)c2ccccc2S3)o1 [drawing 1481] | 10
CC(CNC(=O)c1ccc2c(c1)N=C(c1ccc(F)cc1)c1ccccc1S2)c1ccccc1 (stereo not drawn) [drawing 1362] | 3.98
O=C(NCc1ccco1)c1ccc2c(c1)N=C(c1ccccc1F)c1ccccc1S2 [drawing 1435] | 50.1
O=C(NN1CCCCC1)c1ccc2c(c1)N=C(c1ccc(Cl)s1)c1ccccc1S2 [drawing 1385] | 5.01
CC(C)CNC(=O)c1ccc2c(c1)N=C(c1cccc(Cl)c1)c1ccccc1S2 [drawing 1361] | 3.98
CCCC1=Nc2cc(C(=O)NC3CCC(C)CC3)ccc2Sc2ccccc21 (stereo not drawn) [drawing 1437] | 50.1
CCCCNC(=O)c1ccc2c(c1)N=C(c1sccc1C)c1ccccc1S2 [drawing 1244] | 15.8
CC(C)CCNC(=O)c1ccc2c(c1)N=C(c1ccc(F)cc1)c1ccccc1S2 [drawing 1330] | 3.98

— patent US20080090805A1, “CB-1 MODULATING COMPOUNDS AND THEIR USE” (ACADIA PHARMACEUTICALS INC., priority 2005, published 2008)
